32 compounds from patent publication US11535621B2, “Heterobicyclic amides as inhibitors of CD38” (Ribon Therapeutics, Inc., priority 2019, dated 2022) can be followed below.

A value given as a limit tells only on which side of the number the result lay.

The experiment deals with Human CD38 (Homo sapiens (Human), UniProt P28907). Put plainly: CD38 enzyme assay. The class given is biochemical. As to conditions: 2 nM CD38, NAD+ substrate, absorbance at 405 nm. The essentials: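 IC50 values come from fitting % inhibition against compound concentration with a 4-parameter logistic, or a 3-parameter fit with top/bottom fixed at 100/0 or Hill at 1. Inhibition is scaled between DMSO wells and positive-control wells treated with a quinolinone CD38 inhibitor.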
Human CD38, sequence (P28907 whole entry): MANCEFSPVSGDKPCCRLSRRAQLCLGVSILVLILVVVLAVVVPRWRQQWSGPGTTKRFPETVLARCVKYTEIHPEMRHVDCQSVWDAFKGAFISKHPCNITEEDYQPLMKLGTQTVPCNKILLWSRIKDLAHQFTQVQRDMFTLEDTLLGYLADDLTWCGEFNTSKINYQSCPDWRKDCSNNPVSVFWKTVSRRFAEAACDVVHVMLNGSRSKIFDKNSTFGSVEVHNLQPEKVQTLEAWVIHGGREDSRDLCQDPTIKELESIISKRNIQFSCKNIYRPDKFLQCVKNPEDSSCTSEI
As to `O=C(N[C@H]1CC[C@H](NCCC(F)(F)F)CC1)c1nc(-n2ccnc2)cc2cn[nH]c12` [Example 189, 5-(1H-imidazol-1-yl)-N-((1r,4r)-4-((3,3,3-trifluoropropyl)amino)cyclohexyl)-1H-pyrazolo[3,4-c]pyridine-7-carboxamide], the concentration for half-maximal inhibition (IC50) lay in the range of 10 to 100 nM.

In turn, `CN(C)CC#Cc1ccc(NC(=O)c2nc(-n3ccnc3)nc3cc[nH]c23)cn1` [Example 190, N-(6-(3-(dimethylamino)prop-1-yn-1-yl)pyridin-3-yl)-2-(1H-imidazol-1-yl)-5H-pyrrolo[3,2-d]pyrimidine-4-carboxamide] yielded a half-maximal inhibitory concentration (IC50) of under 10 nM.

`O=C(N[C@H]1CC[C@H](NCC(F)(F)F)CC1)c1nc(-n2ccnc2)nc2cn[nH]c12` [Example 191, 5-(1H-imidazol-1-yl)-N-((1r,4r)-4-((2,2,2-trifluoroethyl)amino)cyclohexyl)-1H-pyrazolo[4,3-d]pyrimidine-7-carboxamide] displayed a half-maximal inhibitory concentration (IC50) of 10 to 100 nM.

In turn, `C[C@H](O)[C@H]1CC[C@H](NC(=O)c2nc(-n3ccnc3)cc3cn[nH]c23)CC1` [Example 192a, N-((1S,4r)-4-((S)-1-hydroxyethyl)cyclohexyl)-5-(1H-imidazol-1-yl)-1H-pyrazolo[3,4-c]pyridine-7-carboxamide] showed an IC50 of under 10 nM.

Compound `C[C@@H](O)[C@H]1CC[C@H](NC(=O)c2nc(-n3ccnc3)cc3cn[nH]c23)CC1` [Example 192b, N-((1R,4r)-4-((R)-1-hydroxyethyl)cyclohexyl)-5-(1H-imidazol-1-yl)-1H-pyrazolo[3,4-c]pyridine-7-carboxamide] yielded a half-maximal inhibitory concentration (IC50) of under 10 nM.

Take `CC(F)(F)CN[C@H]1CC[C@H](NC(=O)c2nc(-n3ccnc3)cc3cn[nH]c23)CC1` [Example 193, N-((1r,4r)-4-((2,2-difluoropropyl)amino)cyclohexyl)-5-(1H-imidazol-1-yl)-1H-pyrazolo[3,4-c]pyridine-7-carboxamide]: the half-maximal inhibitory concentration (IC50) fell in the range of 10 to 100 nM.

As to `CC(F)(F)CN[C@H]1CC[C@@H](NC(=O)c2nc(-n3ccnc3)cc3cn[nH]c23)CC1` [Example 194, N-((1s,4s)-4-((2,2-difluoropropyl)amino)cyclohexyl)-5-(1H-imidazol-1-yl)-1H-pyrazolo[3,4-c]pyridine-7-carboxamide], the IC50 is 100 to 1000 nM.

The compound `O=C(N[C@H]1CC[C@H](NCC(F)F)CC1)c1nc(-n2ccnc2)cc2cn[nH]c12` [Example 195, N-((1r,4r)-4-((2,2-difluoroethyl)amino)cyclohexyl)-5-(1H-imidazol-1-yl)-1H-pyrazolo[3,4-c]pyridine-7-carboxamide] showed an IC50 of 10 to 100 nM.

`COCCO[C@H]1CC[C@H](NC(=O)c2nc(-n3ccnc3)cc3cn(C)nc23)CC1` [Example 196, 5-(1H-imidazol-1-yl)-N-((1r,4r)-4-(2-methoxyethoxy)cyclohexyl)-2-methyl-2H-pyrazolo[3,4-c]pyridine-7-carboxamide] had an IC50 of 10 to 100 nM.

The compound `COCCO[C@H]1CC[C@H](NC(=O)c2nc(-n3ccnc3)cc3cnn(C)c23)CC1` [Example 197, 5-(1H-imidazol-1-yl)-N-((1r,4r)-4-(2-methoxyethoxy)cyclohexyl)-1-methyl-1H-pyrazolo[3,4-c]pyridine-7-carboxamide] gave a half-maximal inhibitory concentration (IC50) of 10 to 100 nM.

Consider `COCCO[C@H]1CC[C@H](NC(=O)c2nc(-n3ccnc3)cc3ccsc23)CC1` [Example 198, 5-(1H-imidazol-1-yl)-N-((1r,4r)-4-(2-methoxyethoxy)cyclohexyl)thieno[2,3-c]pyridine-7-carboxamide], for which the IC50 fell in the range of 10 to 100 nM.

Regarding `CNC(=O)C[C@H]1CC[C@H](NC(=O)c2nc(-n3ccnc3)cc3cn[nH]c23)CC1` [Example 199, 5-(1H-imidazol-1-yl)-N-((1r,4r)-4-(2-(methylamino)-2-oxoethyl)cyclohexyl)-1H-pyrazolo[3,4-c]pyridine-7-carboxamide], the IC50 is 10 to 100 nM.

On to `O=C(N[C@H]1CC[C@H](CCO)CC1)c1nc(-n2ccnc2)nc2cc[nH]c12` [Example 200, N-((1r,4r)-4-(2-hydroxyethyl)cyclohexyl)-2-(1H-imidazol-1-yl)-5H-pyrrolo[3,2-d]pyrimidine-4-carboxamide], for which the IC50 was under 10 nM.

In the case of `CN(C)C(=O)CO[C@H]1CC[C@H](NC(=O)c2nc(-n3ccnc3)nc3cn[nH]c23)CC1` [Example 201, N-((1r,4r)-4-(2-(dimethylamino)-2-oxoethoxy)cyclohexyl)-5-(1H-imidazol-1-yl)-1H-pyrazolo[4,3-d]pyrimidine-7-carboxamide], the IC50 was in the range of 10 to 100 nM.

The compound `CN(C)C(=O)CO[C@H]1CC[C@H](NC(=O)c2nc(-n3ccnc3)cc3cn[nH]c23)CC1` [Example 202, N-((1r,4r)-4-(2-(dimethylamino)-2-oxoethoxy)cyclohexyl)-5-(1H-imidazol-1-yl)-1H-pyrazolo[3,4-c]pyridine-7-carboxamide] gave an IC50 of 10 to 100 nM.

The compound `O=C(Nc1ccc(OCCN2CCCC2)nc1)c1nc(-n2ccnc2)cc2cn[nH]c12` [Example 203, 5-(1H-imidazol-1-yl)-N-(6-(2-(pyrrolidin-1-yl)ethoxy)pyridin-3-yl)-1H-pyrazolo[3,4-c]pyridine-7-carboxamide] gave a concentration for half-maximal inhibition (IC50) of 10 to 100 nM.

As for `O=C(N[C@H]1CC[C@H](N2CC(F)(F)C2)CC1)c1nc(-n2ccnc2)nc2cc[nH]c12` [Example 204, N-((1r,4r)-4-(3,3-difluoroazetidin-1-yl)cyclohexyl)-2-(1H-imidazol-1-yl)-5H-pyrrolo[3,2-d]pyrimidine-4-carboxamide], the 50% inhibitory concentration (IC50) lay in the range of 10 to 100 nM.

In the case of `N#Cc1ccc(NC(=O)c2nc(-n3ccnc3)cc3cn[nH]c23)cc1` [Example 205, N-(4-cyanophenyl)-5-(1H-imidazol-1-yl)-1H-pyrazolo[3,4-c]pyridine-7-carboxamide], the half-maximal inhibitory concentration (IC50) is under 10 nM.

For the compound `O=C(N[C@H]1CC[C@H](NCC(F)F)CC1)c1nc(-n2ccnc2)nc2cn[nH]c12` [Example 206, N-((1r,4r)-4-(2,2-difluoroethylamino)cyclohexyl)-5-(1H-imidazol-1-yl)-1H-pyrazolo[4,3-d]pyrimidine-7-carboxamide], the half-maximal inhibitory concentration (IC50) lay in the range of 10 to 100 nM.

Take `CC(=O)NC[C@H]1CC[C@H](NC(=O)c2nc(-n3ccnc3)cc3cn[nH]c23)CC1` [Example 209, N-((1r,4r)-4-(acetamidomethyl)cyclohexyl)-5-(1H-imidazol-1-yl)-1H-pyrazolo[3,4-c]pyridine-7-carboxamide]: the concentration for half-maximal inhibition (IC50) lay in the range of 10 to 100 nM.

As to `CC(C)(O)[C@H]1CC[C@H](NC(=O)c2nc(-n3ccnc3)nc3ccsc23)CC1` [Example 210, N-((1r,4r)-4-(2-hydroxypropan-2-yl)cyclohexyl)-2-(1H-imidazol-1-yl)thieno[3,2-d]pyrimidine-4-carboxamide], the half-inhibitory concentration (IC50) is under 10 nM.

`O=C(Nc1ccc2c(c1)CNC2)c1nc(-n2ccnc2)nc2cc[nH]c12` [Example 211, 2-(1H-imidazol-1-yl)-N-(isoindolin-5-yl)-5H-pyrrolo[3,2-d]pyrimidine-4-carboxamide] showed an IC50 of under 10 nM.

Regarding `N#Cc1ccc(O[C@H]2CC[C@H](NC(=O)c3nc(-n4ccnc4)nc4cc[nH]c34)CC2)cc1` [Example 212, N-((1r,4r)-4-(4-cyanophenoxy)cyclohexyl)-2-(1H-imidazol-1-yl)-5H-pyrrolo[3,2-d]pyrimidine-4-carboxamide], the half-maximal inhibitory concentration (IC50) was under 10 nM.

With `CS(=O)(=O)[C@H]1CC[C@H](NC(=O)c2nc(-n3ccnc3)nc3cc[nH]c23)CC1` [Example 213, 2-(1H-imidazol-1-yl)-N-((1r,4r)-4-(methylsulfonyl)cyclohexyl)-5H-pyrrolo[3,2-d]pyrimidine-4-carboxamide], the IC50 was 10 to 100 nM.

Compound `N#CCO[C@H]1CC[C@H](NC(=O)c2nc(-n3ccnc3)nc3cn[nH]c23)CC1` [Example 214, N-((1r,4r)-4-(cyanomethoxy)cyclohexyl)-5-(1H-imidazol-1-yl)-1H-pyrazolo[4,3-d]pyrimidine-7-carboxamide] displayed a concentration for half-maximal inhibition (IC50) of under 10 nM.

Compound `N#CCO[C@H]1CC[C@H](NC(=O)c2nc(-n3ccnc3)cc3cn[nH]c23)CC1` [Example 215, N-((1r,4r)-4-(cyanomethoxy)cyclohexyl)-5-(1H-imidazol-1-yl)-1H-pyrazolo[3,4-c]pyridine-7-carboxamide] registered an IC50 of under 10 nM.

The compound `O=C(N[C@H]1CC[C@H](NC2COC2)CC1)c1nc(-n2ccnc2)nc2cc[nH]c12` [Example 216, 2-(1H-imidazol-1-yl)-N-((1r,4r)-4-(oxetan-3-ylamino)cyclohexyl)-5H-pyrrolo[3,2-d]pyrimidine-4-carboxamide] registered an IC50 of 10 to 100 nM.

For the compound `CNC(=O)[C@H]1CC[C@H](NC(=O)c2nc(-n3ccnc3)cc3cn[nH]c23)CC1` [Example 217, 5-(1H-imidazol-1-yl)-N-((1r,4r)-4-(methylcarbamoyl)cyclohexyl)-1H-pyrazolo[3,4-c]pyridine-7-carboxamide], the IC50 is under 10 nM.

In turn, `CN(CC(F)(F)F)[C@H]1CC[C@H](NC(=O)c2nc(-n3ccnc3)cc3cn[nH]c23)CC1` [Example 218, 5-(1H-imidazol-1-yl)-N-((1r,4r)-4-(methyl(2,2,2-trifluoroethyl)amino)cyclohexyl)-1H-pyrazolo[3,4-c]pyridine-7-carboxamide] yielded an IC50 of 10 to 100 nM.

On to `N#CC[C@H]1CC[C@H](NC(=O)c2nc(-n3ccnc3)cc3cn[nH]c23)CC1` [Example 219, N-((1r,4r)-4-(cyanomethyl)cyclohexyl)-5-(1H-imidazol-1-yl)-1H-pyrazolo[3,4-c]pyridine-7-carboxamide], for which the IC50 is under 10 nM.

As to `O=C(N[C@H]1CC[C@H](NCC(F)(F)F)CC1)c1nc(-n2ccnc2)nc2ccsc12` [Example 220, 2-(1H-imidazol-1-yl)-N-((1r,4r)-4-(2,2,2-trifluoroethylamino)cyclohexyl)thieno[3,2-d]pyrimidine-4-carboxamide], the half-maximal inhibitory concentration (IC50) was 10 to 100 nM.

In the case of `O=C(N[C@H]1CC[C@H](NCC(F)F)CC1)c1nc(-n2ccnc2)nc2ccsc12` [Example 221, N-((1r,4r)-4-(2,2-difluoroethylamino)cyclohexyl)-2-(1H-imidazol-1-yl)thieno[3,2-d]pyrimidine-4-carboxamide], the half-inhibitory concentration (IC50) was in the range of 10 to 100 nM.
